This assay addresses T1, BRDT (Mus musculus, UniProt Q91Y44).
T1 construct: mBRDT(1) 23–133, first (N-terminal) bromodomain
Kind of assay: AlphaScreen competition with H4Kac4 peptide (IC50); ITC. The format is binding.

IC50 data for 1 compound are collected here from article PMC3420011, “Small-Molecule Inhibition of BRDT for Male Contraception” (Cell, 2012).

`Cc1sc2c(c1C)C(c1ccc(Cl)cc1)=N[C@@H](CC(=O)OC(C)(C)C)c1nnc(C)n1-2` [(+)-JQ1]: the IC50 was determined as 10 nM.
